Reference: patent US20250171744A1, “METHODS OF REPROGRAMMING SOMATIC CELLS AND MATERIALS RELATED THERETO” (CITY OF HOPE, priority 2019, published 2025)

Key:
HF57 cells [1] = test: Global DNA methylation, 5mC ELISA (FIG. 18); type: cell-based, human; conditions: 7-days; vs untreated cells
Procedure: Equal amount of DNA (100 ng) was analyzed with 5mC enzyme-linked immunosorbent assay (ELISA) (EpiGentek). […] Error bars represent the standard error for at least three independent experiments and three technical replicates.
Global DNA methylation measurement Global 5-methylcytosine (5-mC) levels were quantified using the MethylFlash Methylated DNA Quantification Kits (Epigentek, Farmingdale, NY, USA). The DNA concentration was determined using the Qubit Assay (Thermo Fisher Scientific) according to the manufacturer's protocol. Briefly, 100 ng of DNA was used for incubation with both capture and detection antibodies using MethylFlash Methylated DNA Quantification Kit (Colorimetric) from Epigentek. Subsequently, measurements of the absorbance of the sample at 450 nm in a microplate spectrophotometer (BioTek Instruments, Winooski, VT, USA) were performed with the percentage of the whole genome 5-mC calculation according to manufacturer's instructions. Genomic methylation levels in study samples were expressed as percentage of 5-mC.

HF57 cells [2] = test: Transcriptomics (RNAseq) of MTX and PTX treated cells (FIG. 20); type: cell-based, human; conditions: for pluripotency markers significantly enriched: compared to controls
Text: RNAseq data validated that application of MTX and PTX affected C1 metabolism in the treated cells. […] The global transcriptional change across the groups compared was visualized by a volcano plot (FIGS. 20A-20B). Each data point in the scatter plot represents a gene. The log 2 fold change of each gene is represented on the x-axis and the log 10 of its adjusted p-value is on the y-axis. Genes with an adjusted p-value less than 0.05 and a log 2 fold change greater than 1 are indicated by red dots. […] Genes with an adjusted p-value less than 0.05 and a log 2 fold change less than −1 are indicated by green dots. […] Heat map visualization of the selected 67 differentially expressed genes. Original values are ln(x)-transformed. Rows are centered; unit variance scaling is applied to rows. Red indicates higher expression, whereas low expression indicated in green (FIG. 20C). For visual clarity, expression of selected genes is presented in groups based on their relative values (FIG. 20D).
(§1) The quiescent nature of the MTX and PTX cells and the association of demethylation with the generation of induced pluripotent stem cells led to examining markers for stem cells formation. The 293T and HF57 cells were grown on 5% dialyzed FBS DMEM medium. DMEM without methionine, DMEM with 15 mg/L (half dose) and DMEM with 30 mg/L (regular DMEM) were used to grow the cells. Once the cells attained 70% confluency, HF57 were treated with 1-μM MTX or PTX and HEK293T were treated with 500 nM MTX or 1 μM PTX. The cells were treated with MTX or PTX for 7-days, and subsequently the medium was replaced with N2B27 medium (Thermo Fisher Scientific, USA). The cells were grown in N2B27 medium for 15 days which supported undifferentiated growth of human embryonic stem cells. Subsequently, these cells were maintained in MTeSR medium supplemented with sodium hypoxanthine and thymidine (HT) for 15 or more days. These conditions supported prolonged self-renewal of putative pluripotent cells, and they were able to form colonies and later embryoid bodies in vitro. Subsequently, the cells were assessed for markers linked to stem cells. Transcriptomics and qRT-PCR were performed to examine whether ES cell marker genes were expressed in these cells. Both MTX and PTX treated cells expressed the marker genes (FIGS. 20-21 and 25-26). […] To authenticate these findings, two key pluripotency markers (SSEA-4 and TRA 1-60) were examined using immunofluorescence.

[3] = system: human dermal fibroblast (HDF) cells; test: Cell proliferation under prolonged MTX/PTX application, with or without HT (FIG. 16); type: cell-based; conditions: controlled application, 5% dialyzed-FBS DMEM, 1 μM MTX for 7-days
Procedure: (§2) The cells were grown in 5% dialyzed-FBS DMEM medium. 293T cells were treated with 500 nM MTX, and HF57 cells and HDF cells were treated with 1 μM MTX for 7-days. Because inhibition of DHFR and TS by folate antagonists (MTX, PTX) results in a deficiency in the cellular pools of thymidylate and purines and thus a decrease in nucleic acid synthesis, sodium hypoxanthine (10 mM) and thymidine (1.6 mM) were added to the medium to overcome the effects of MTX and PTX. […] The cells were harvested for DNA/RNA isolation and analyzed for gene expression and DNA methylation.

[4] = system: human fibroblast cells (HF57); test: as above; type: cell-based; conditions: controlled application, 5% dialyzed-FBS DMEM, 1 μM MTX for 7-days
Procedure: as §2

[5] = Cell viability after MTX or PTX treatment (FIG. 17); type: cell-based; conditions: human; for viability: post MTX or PTX treatment; for viability at 5 days: HEK293T cells, after 5-days of MTX or PTX treatment, read-out: viable cells
Procedure: Call quantification, imaging, and statistical analysis: Cells were quantified using a Cellometer Auto T4 counting chamber after mixing in a 1:1 ratio with Trypan blue (MilliporeSigma) to exclude dead cells. The average of 2 separate counts was taken to calculate the cell numbers. All live cell imaging was conducted using an EVOS FL Auto microscope (Thermo Fisher Scientific). All statistical analysis was performed using a paired Student's t test with Bonferroni correction or 1-sample Student's t test. Values of P<0.05 were considered significant.

HF57 cells [6] = test: qRT-PCR relative transcript levels (FIG. 21B, FIG. 32); type: cell-based, human; conditions: for transcripts level of DNMT1 / transcripts level of MTHFR / transcripts level of MTR / relative transcripts level of Nanog / relative transcripts level of Oct4 / relative transcripts level of Sox2: FIG. 21B; for relative transcripts level of Nanog / relative transcripts level of Oct4 / relative transcripts level of Sox2: vs control cells
Procedure: Also, the cells were treated with PTX for 2-days only. Since exposure time of PTX or MTX is very critical for gene expression or other genetic changes, the expression of ANOS could be higher after prolonged exposure to PTX.
To validate microarray results, quantitative 2-step RT-PCR was performed. One microgram of total RNA was reverse transcribed to first-strand cDNA with the Qiagen cDNA Synthesis Kit (Qiagen), and this cDNA was subsequently used as a template for quantitative PCR with gene-specific primers. The ubiquitous β-actin gene served as a control for constitutive gene expression. The quantitative RT-PCR (qRT-PCR) reactions were performed using Power Sybr Green PCR Master Mix (Thermo Fisher Scientific) on a CFX96 Touch Real-Time PCR Detection System (Bio-Rad, Hercules, CA, USA). Relative expression levels (2^−ΔCt) were calculated according to the Livak and Schmittgen method (40). Expression levels of each gene were compared with the expression level of actin.
as §1

| SMILES | global DNA methylation (5mC content) (HF57 cells [1]) | LIN28A enrichment compared to controls (HF57 cells [2]) [fold] | NANOG enrichment compared to controls (HF57 cells [2]) [fold] | SOX2 enrichment compared to controls (HF57 cells [2]) [fold] | one carbon-metabolism and DNA methylation related genes significantly down-regulated (HF57 cells [2]) | one carbon-metabolism and DNA methylation related genes upregulated (HF57 cells [2]) [genes] | pluripotency markers significantly enriched (HF57 cells [2]) | cell proliferation [3] | cell proliferation [4] | viability ([5]; HDF fibroblast cell line) [%] | viability at 5 days [5] [%] | viability ([5]; HF57 fibroblast cell line) [%] | transcripts level of DNMT1 (HF57 cells [6]) | transcripts level of MTHFR (HF57 cells [6]) | transcripts level of MTR (HF57 cells [6]) | relative transcripts level of Nanog (HF57 cells [6]) | relative transcripts level of Oct4 (HF57 cells [6]) | relative transcripts level of Sox2 (HF57 cells [6]) | expression of ANKRD1 (HF57 cells [6]; treated for 2-days) | expression of ANOS (HF57 cells [6]; treated for 2-days) |
| --- | --- | --- | --- | --- | --- | --- | --- | --- | --- | --- | --- | --- | --- | --- | --- | --- | --- | --- | --- | --- |
| CN(Cc1cnc2nc(N)nc(N)c2n1)c1ccc(C(=O)N[C@@H](CCC(=O)O)C(=O)O)cc1 [MTX, methotrexate] | significant reduction in global DNA methylation | 6 | 6 | 5 | about 41 genes | 9 | about 50 | reduced cell proliferation | reduced cell proliferation | 60 to 75 | 20 to 25 | 60 to 75 | significantly reduced | significantly reduced | significantly reduced | significantly higher | significantly higher | significantly higher | – | – |
| Nc1nc2[nH]cc(CCc3ccc(C(=O)N[C@@H](CCC(=O)O)C(=O)O)cc3)c2c(=O)[nH]1 [PTX, pemetrexed] | significant reduction in global DNA methylation | 6 | 6 | 5 | about 41 genes | 9 | about 50 | reduced cell proliferation | reduced cell proliferation | 60 to 75 | 20 to 25 | 60 to 75 | significantly reduced | significantly reduced | significantly reduced | significantly higher | significantly higher | significantly higher | significantly higher than control | significantly higher than control |
